In the supplement of paper PMC13380429:

What was measured:
Details in all cases: 72 h
Vero E6 [1] = test: cell viability relative to DMSO; higher = less toxic
U2OS [2] = test: as above
HepG2 [3] = test: as above
Caco-2 [4] = test: as above
Calu-3 [5] = test: as above
Vero E6 [6] = test: relative viability EC50 (midpoint between 100% and the lowest measured viability); higher = less toxic
U2OS [7] = test: as above
HepG2 [8] = test: as above
Caco-2 [9] = test: as above
Calu-3 [10] = test: as above
Vero E6 [11] = test: drug sensitivity score (DSS) for viability; higher = more toxic; extreme values may be limits of the assay
U2OS [12] = test: as above
HepG2 [13] = test: as above
Caco-2 [14] = test: as above
Calu-3 [15] = test: as above

| SMILES | cell viability (Vero E6 [1]; 1 nM) [%] | cell viability (Vero E6 [1]; 10 nM) [%] | cell viability (Vero E6 [1]; 100 nM) [%] | cell viability (Vero E6 [1]; 1000 nM) [%] | cell viability (Vero E6 [1]; 10000 nM) [%] | cell viability (U2OS [2]; 1 nM) [%] | cell viability (U2OS [2]; 10 nM) [%] | cell viability (U2OS [2]; 100 nM) [%] | cell viability (U2OS [2]; 1000 nM) [%] | cell viability (U2OS [2]; 10000 nM) [%] | cell viability (HepG2 [3]; 1 nM) [%] | cell viability (HepG2 [3]; 10 nM) [%] | cell viability (HepG2 [3]; 100 nM) [%] | cell viability (HepG2 [3]; 1000 nM) [%] | cell viability (HepG2 [3]; 10000 nM) [%] | cell viability (Caco-2 [4]; 1 nM) [%] | cell viability (Caco-2 [4]; 10 nM) [%] | cell viability (Caco-2 [4]; 100 nM) [%] | cell viability (Caco-2 [4]; 1000 nM) [%] | cell viability (Caco-2 [4]; 10000 nM) [%] | cell viability (Calu-3 [5]; 1 nM) [%] | cell viability (Calu-3 [5]; 10 nM) [%] | cell viability (Calu-3 [5]; 100 nM) [%] | cell viability (Calu-3 [5]; 1000 nM) [%] | cell viability (Calu-3 [5]; 10000 nM) [%] | relative viability EC50 (Vero E6 [6]) [µM] | relative viability EC50 (U2OS [7]) [µM] | relative viability EC50 (HepG2 [8]) [µM] | relative viability EC50 (Caco-2 [9]) [µM] | relative viability EC50 (Calu-3 [10]) [µM] | drug sensitivity score (Vero E6 [11]) | drug sensitivity score (U2OS [12]) | drug sensitivity score (HepG2 [13]) | drug sensitivity score (Caco-2 [14]) | drug sensitivity score (Calu-3 [15]) |
| --- | --- | --- | --- | --- | --- | --- | --- | --- | --- | --- | --- | --- | --- | --- | --- | --- | --- | --- | --- | --- | --- | --- | --- | --- | --- | --- | --- | --- | --- | --- | --- | --- | --- | --- | --- |
| CN(C)[C@@H]1CCc2[nH]c3ccc(NC(=O)c4ccc(F)cc4)cc3c2C1 | 106 | 98.9 | 100 | 96.1 | 97.2 | 97.1 | 104 | 91.9 | 101 | 96.1 | 101 | 99.3 | 95.8 | 89.3 | 94.6 | 96 | 103 | 93.5 | 99.3 | 86.6 | 105 | 93.2 | 105 | 110 | 84.2 | > 10 | > 10 | > 10 | > 10 | > 10 | 0 | 0 | 0.1 | 0.2 | 0.1 |
| CC1(C)S[C@@H]2[C@H](N3C(=O)[C@@H](c4ccccc4)NC3(C)C)C(=O)N2[C@H]1C(=O)O [hetacillin] | 109 | 97.6 | 94.7 | 110 | 90.4 | 100 | 95.7 | 101 | 95 | 99.5 | 95.6 | 101 | 102 | 110 | 93.8 | 98.3 | 92.7 | 96.8 | 93.4 | 86.4 | 99.4 | 94.3 | 104 | 100 | 113 | > 10 | > 10 | > 10 | > 10 | > 10 | 0 | 0 | 0 | 0 | 0 |
| C[C@]12CCC(=O)C=C1CC[C@@H]1[C@@H]2CC[C@@]2(C)[C@H]1CC[C@]2(C)O [17-alpha-Methyltestosterone] | 92.6 | 97.4 | 94.4 | 91.9 | 105 | 97.6 | 96.1 | 104 | 101 | 97.1 | 103 | 90.8 | 91.5 | 96.8 | 101 | 99.2 | 89.5 | 90.4 | 98.8 | 102 | 108 | 97.1 | 114 | 106 | 115 | > 10 | > 10 | > 10 | > 10 | > 10 | 0 | 0 | 0 | 0 | 0 |
| CCC[C@H](N[C@H]1CCc2cc(F)cc(F)c2C1)C(=O)Nc1cn(C(C)(C)CNCC(C)(C)C)cn1 | 99.7 | 104 | 107 | 95.5 | 89.1 | 102 | 94.7 | 99.7 | 92.4 | 87.9 | 105 | 104 | 104 | 93.9 | 80.1 | 102 | 91.8 | 102 | 98.2 | 86.1 | 95 | 105 | 108 | 103 | 84.4 | > 10 | > 10 | > 10 | > 10 | > 10 | 0.1 | 0.2 | 1.3 | 0.3 | 0.2 |
